In patent publication US9394309B2, “Substituted phenylimidazopyrazoles and their use” (BAYER INTELLECTUAL PROPERTY GmbH, priority 2012, dated 2016) one finds IC50 data, which are given here for one compound.

Structures are written as SMILES.

One may read the IC50 as the midpoint of a concentration-inhibition curve. Low readings indicate greater potency, high ones weaker potency.

Experiment [1] deals with intracellular domain of human Tie2 (GST fusion protein) (Homo sapiens (Human), UniProt Q02763). As to the kind of experiment: Tie2 kinase assay (Tie2-TR-FRET). The conditions noted are these: ATP concentration 1 mM; in some cases means of several independent determinations. The format is biochemical. The procedure:
The Tie2-inhibitory activity of the substances according to the invention was determined with the aid of one of the Tie2-TR-FRET assays described in the sections below at an ATP concentration of 1 mM (TR-FRET=Time-Resolved Fluorescence Resonance Energy Transfer):
The enzyme used was a recombinant fusion protein of glutathione S-transferase (GST) and the intracellular domain of human Tie2 (amino acids 776-1124) which was expressed in Baculovirus-infected insect cells (Hi5) and was purified by affinity chromatography on glutathione-Sepharose. Alternatively, it is also possible to use commercially available GST-His6-Tie2 fusion protein (ProQinase GmbH, Freiburg im Breisgau, Germany). The substrate used for the kinase reaction was the biotinylated peptide biotin-Ahx-[…] […]
The reaction was stopped by addition of 5 μl of a solution of TR-FRET detection reagents [200 nM streptavidin-XL665 and 2 nM PT66-Eu chelate, a europium chelate-labelled anti-phosphotyrosine antibody (Perkin-Elmer); alternatively, it is also possible to use PT66-Tb cryptate (Cisbio Bioassays, Codolet, France)] in aqueous EDTA solution [90 mM EDTA, 0.28% (w/v) bovine serum albumin (BSA) in 50 mM HEPES pH 7.5]. […] The amount of phosphorylated substrate was then determined by measuring the resonance energy transfer from PT66-Eu chelate to streptavidin-XL665. […]

For experiment [2], the target named is endogenous Tie2 receptor (Homo sapiens (Human), UniProt Q02763). As to the kind of experiment: Tie2-pTyr-ELISA (Tie2 autophosphorylation in HUVEC). The class given is cell-based. The conditions noted are these: autophosphorylation elevated by 4 mM sodium orthovanadate, from 2-7 independent measurements. The procedure: The cellular activity of the compounds according to the invention as Tie2 kinase inhibitors was determined in human endothelial cells (HUVEC) by measuring the inhibition of the autophosphorylation, elevated by treatment with sodium orthovanadate, of the endogenous Tie2 receptor by means of a Tie2/phosphotyrosine sandwich ELISA.
Chain of endogenous Tie2 receptor (Q02763 23-1124): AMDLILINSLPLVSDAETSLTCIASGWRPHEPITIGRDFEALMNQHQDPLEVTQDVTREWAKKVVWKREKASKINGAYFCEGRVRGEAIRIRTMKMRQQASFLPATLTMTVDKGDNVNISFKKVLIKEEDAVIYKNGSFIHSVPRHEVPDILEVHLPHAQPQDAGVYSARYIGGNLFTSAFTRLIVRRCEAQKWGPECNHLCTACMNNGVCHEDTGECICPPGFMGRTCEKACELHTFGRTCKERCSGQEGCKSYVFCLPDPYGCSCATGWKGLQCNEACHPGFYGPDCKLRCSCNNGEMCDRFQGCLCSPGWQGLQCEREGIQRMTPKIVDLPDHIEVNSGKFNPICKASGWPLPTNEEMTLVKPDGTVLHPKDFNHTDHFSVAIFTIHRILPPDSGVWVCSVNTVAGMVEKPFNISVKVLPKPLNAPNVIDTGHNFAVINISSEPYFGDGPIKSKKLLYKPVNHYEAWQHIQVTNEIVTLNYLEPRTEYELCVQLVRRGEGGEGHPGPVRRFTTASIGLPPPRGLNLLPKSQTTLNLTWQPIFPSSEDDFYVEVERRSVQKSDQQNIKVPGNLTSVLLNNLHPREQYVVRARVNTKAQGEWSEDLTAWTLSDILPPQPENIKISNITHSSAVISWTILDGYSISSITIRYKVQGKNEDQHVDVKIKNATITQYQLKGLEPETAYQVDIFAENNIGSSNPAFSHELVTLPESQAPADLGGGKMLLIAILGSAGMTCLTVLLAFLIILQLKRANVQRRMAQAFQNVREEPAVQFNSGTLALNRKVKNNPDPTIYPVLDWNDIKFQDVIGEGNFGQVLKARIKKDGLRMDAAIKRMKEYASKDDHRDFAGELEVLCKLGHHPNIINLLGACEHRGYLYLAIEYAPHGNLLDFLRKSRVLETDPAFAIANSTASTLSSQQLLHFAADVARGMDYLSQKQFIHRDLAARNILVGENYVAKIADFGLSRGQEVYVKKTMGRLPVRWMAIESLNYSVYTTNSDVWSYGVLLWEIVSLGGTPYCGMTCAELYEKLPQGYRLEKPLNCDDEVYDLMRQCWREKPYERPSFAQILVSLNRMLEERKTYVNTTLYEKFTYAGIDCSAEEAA
Human endothelial cells (human umbilical vein endothelial cells, HUVEC) were obtained from Cellsystems (FC-0003), cultured in Vasculife VEGF complete medium (Cellsystems, LL-1020) with 2% foetal calf serum (FCS) at 37° C./5% CO2 and used for Tie2-ELISA measurements up to passage 8.
HUVEC were plated in a culture volume of 100 μl of Vasculife VEGF complete medium at a cell density of 30 000 cells per well in transparent collagen-coated 96-well cell culture plates (Falcon, #353075) and incubated in an incubation cabinet at 37° C./5% CO2 overnight. The test substances dissolved in DMSO were used to prepare in each case one dilution series in Vasculife VEGF low-serum medium [basal medium with LifeFactors (Cellsystems, LM-0002), without FCS, with 0.1% BSA] without sodium orthovanadate and one dilution series in Vasculife VEGF low-serum-medium with 8 mM sodium orthovanadate in the desired concentrations in the range from […] to […], the final DMSO concentration being 1%. […]
(An ELISA detects its analyte on a solid surface through an enzyme-linked reagent.)

Chain of intracellular domain of human Tie2 (GST fusion protein) (Q02763 776-1124): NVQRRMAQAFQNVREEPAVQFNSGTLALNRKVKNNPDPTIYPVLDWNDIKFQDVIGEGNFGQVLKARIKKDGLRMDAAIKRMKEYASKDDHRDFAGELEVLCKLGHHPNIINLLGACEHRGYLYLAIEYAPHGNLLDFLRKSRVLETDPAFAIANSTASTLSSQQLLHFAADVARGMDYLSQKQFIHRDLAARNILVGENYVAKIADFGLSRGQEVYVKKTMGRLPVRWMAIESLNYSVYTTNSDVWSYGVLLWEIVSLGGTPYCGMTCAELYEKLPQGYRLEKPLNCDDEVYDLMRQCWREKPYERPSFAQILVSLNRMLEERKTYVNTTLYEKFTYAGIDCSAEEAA

Turning to `Cc1ccc(NC(=O)c2cc(C#N)cc(S(F)(F)(F)(F)F)c2)cc1-n1ccn2nc(-c3cn[nH]c3)cc12` [Example 85, 3-Cyano-N-{4-methyl-3-[6-(1H-pyrazol-4-yl)-1H-imidazo[1,2-b]pyrazol-1-yl]phenyl}-5-(pentafluoro-λ^6-sulphanyl)benzamide], the results for the IC50 in experiment [1] and in experiment [2] were 20 nM and 44 nM, respectively.
